“Also recorded” adds a separate entry of the source. Read-outs that look alike come from different tables or passages of the source.
Experiments:
Nav1.7 = assay: Triple-pulse protocol, recovery of Nav1.7 current following strong depolarization (HEK293 cells); type: cell-based
sodium channel = conditions: cited from earlier work
From the text: Huwentoxin-IV (HWTX-IV), a tetrodotoxin-sensitive (TTX-s) sodium channel antagonist, is found in the venom of the Chinese spider Ornithoctonus huwena. A naturally modified HWTX-IV (mHWTX-IV), having a molecular mass 18 Da lower than HWTX-IV, has also been isolated from the venom of the same spider. […] Previous research has identified nearly 150 of these components in the Chinese bird spider, Ornithoctonus huwena, which is one of the most venomous spiders in China. […] To address this question, we adopted a triple-pulse protocol in which a test pulse (−10 mV) following a strong depolarization (+200 mV, 500 ms) was used to measure available TTX-S sodium currents.

[1] = test system: TTX-resistant voltage-gated sodium channels; conditions: in words; reference not given; cited from earlier work
From the text: Previous research has identified nearly 150 of these components in the Chinese bird spider, Ornithoctonus huwena, which is one of the most venomous spiders in China. Most of the toxins have six cystine residues adopting inhibitor cystine-knot (ICK) motif with a 1–4, 2–5, 3–6 disulfide bonding pattern; the biological activities of some peptide toxins were thoroughly investigated.

domain II of Nav1.7 = conditions: in words; ref [11]; cited from earlier work
[2] = test system: TTX-R sodium channel of DRG neurons; assay: Whole-cell patch-clamp, TTX-R sodium currents in DRG neurons; type: cell-based, adult Sprague-Dawley rat
[3] = test system: neuronal TTX-sensitive voltage-gated sodium channels; conditions: cited from earlier work
[4] = test system: TTX-S sodium channels in rat DRG neurons; assay: Time course for block of TTX-S currents and reversal of block on washing; type: cell-based
[5] = test system: TTX-S sodium channels in rat DRG neurons; assay: Current-voltage relationship, conductance, steady-state activation and inactivation of TTX-S sodium channel; type: cell-based
[6] = test system: TTX-S voltage-gated sodium channel of DRG neurons; assay: Whole-cell patch-clamp, inhibition of TTX-S sodium currents in DRG neurons; type: cell-based, adult Sprague-Dawley rat
DRG neuron = test system: DRG neuron; design: method as in PMID 16267209, PMID 19409400; conditions: in words; ref [27], [28]; cited from earlier work

Huwentoxin-IV [HWTX-IV]
Recovery of Nav1.7 current, +50 mV (Nav1.7; 1 µM toxin, HEK293 cells, +50 mV for 500 ms, in words): little recovery | Recovery of Nav1.7 current, +100 mV (Nav1.7; 1 µM toxin, HEK293 cells, +100 mV for 500 ms, in words): little recovery | Recovery of Nav1.7 current, +150 mV (Nav1.7; 1 µM toxin, HEK293 cells, +150 mV, five cells): about 34% | Recovery of Nav1.7 current, +200 mV (Nav1.7; 1 µM toxin, HEK293 cells, +200 mV, five cells): ~78% | Recovery of Nav1.7 current by extreme depolarization (summary) (Nav1.7; abstract summary, in words): voltage-dependent and was induced by extreme depolarization | Dissociation at moderate depolarization (sodium channel): dissociates at moderate voltage depolarization voltages | Reversal of binding to sodium channels by strong depolarization (literature) (sodium channel): can be reversed by strong depolarization | Reversibility of inhibition by strong depolarization (literature) (sodium channel): reversible by strong depolarization | Voltage above which currents can be observed (dissociation by strong depolarization) (sodium channel): > 70 mV | Effect on TTX-resistant sodium channels (literature) [1]: no significant effect | Binding site on Nav1.7 (domain II of Nav1.7): binds with the S3–S4 linker D816 and E818 in domain II of Nav1.7 by electrostatic interaction | Effect on TTX-R sodium currents [2]: no effect | Inhibition of TTX-S sodium channel in DRG neurons (literature) [3]: specifically inhibited | IC50 ([3]; read-out: IC50, inhibition of neuronal TTX-sensitive sodium channels (literature)): 30 nM | Dissociation after washing, in words [4]: slowly dissociated | Time course for inhibition of TTX-S currents [4]: 25.4 s | Time course of dissociation after washing [4]: 88.3 s | Channel conductance (conductance–voltage curve) [5]: did not change channel conductance | Steady-state activation and inactivation, comparison of HWTX-IV and mHWTX-IV [5]: no obvious difference | Steady-state inactivation of TTX-S sodium channel [5]: No shift of the steady-state inactivation curve | Threshold of activation and reversal potential of TTX-S sodium channel (I–V) [5]: did not change the threshold of activation and alter the reversal potential | IC50 [6]: 42.9 ± 1.72 nM | Inhibition of TTX-S currents [6]: almost completely inhibited; also recorded: significantly reduced

Jingzhaotoxin-IX [JZTX-IX]
Action under extreme depolarization on DRG neuron compared with mHWTX-IV (DRG neuron): similar

ProTx-II
Reversal of binding to sodium channels by strong depolarization (literature) (sodium channel; in words, ref [11], [19], [20]): can be reversed by strong depolarization

jingzhaotoxin-34 [JZTX-34]
Inhibition of neuronal TTX-sensitive sodium channels (literature) ([3]; in words, ref [9]): inhibited neuronal TTX-sensitive voltage-gated sodium channels

— paper PMC3691182 (PLoS ONE, 2013)
